Patent US20100016376A1, “CASPASE INHIBITORS BASED ON PYRIDONE SCAFFOLD” (LG Life Sciences Ltd., priority 2006, published 2010)

What was measured:
[1] = molecular target: T1, caspase-8 (Homo sapiens, UniProt Q14790); experiment: Assay for the caspase inhibitory effect (fluorescent substrate AcDEVD-AFC); type: biochemical; details: pH 7.5; 2.1 nM caspase-8, 50 μM AcDEVD-AFC, 25° C., pH 7.50; read-out: Caspase-8 Kobs/[I] (converted)
T1 construct: p10 and p20 subunits (Thornberry, N. A. et al, Nature, 1992, 356, 768) were expressed in E. coli; made in house; host or cells: E. coli
Description: Caspase-1 and caspase-8 known as cysteine proteases in the form of α2β2 were expressed, purified, and activated by modifying a method known in Thornberry, N. A. et al, Nature, 1992, 356, 768; Thornberry, N. A. Methods in Enzymology, 1994, 244, 615; Walker, N. P. C. et al. Cell, 1994, 78, 343, and caspase-9 was also purified by a similar method, and the inhibitory activity against them was tested. Briefly describing, p10 and p20 subunits (Thornberry, N. A. et al, Nature, 1992, 356, 768) were expressed in E. coli and purified by nickel column and anionic exchange chromatography to give caspase-1, caspase-8 and caspase-9. The fluorescent substrates AcYVAD-AFC for thus obtained caspase-1, AcDEVD-AFC for caspase-8, and AcLEHD-AFC for caspase-9, were used for determining specific activity of the synthesized inhibitors. The enzyme reaction was carried cut at 25° C. with various concentrations of the inhibitors in a buffer solution containing 50 mM HEPES(pH 7.50), 10% (w/v) sucrose, 0.1% (w/v) CHAPS, 100 mM NaCl, 1 mM EDTA, and 10 mM DTT in the presence of 50 μM AcYVAD-AFC for 10 nM caspase-1, 50 μM AcDEVD-AFC for 2.1 nM caspase-8, and 150 μM AcLEHD-AFC for 200 nM caspase-9. The inhibitory constants Ki and Kobs of the inhibitors were determined by measuring the reaction velocity with the time lapse using a fluorescent spectrometer and by obtaining the initial rate constant. Ki was calculated from the Lineweaver Burk Plot, and Kobs from the following Equation 1.
Kobs=−ln (1−At/Aoo)/t [Equation 1]
At means cleavage rate (%) at time t, and
Aoo means the maximum cleavage rate (%).
Spectra MAX GeminiXS Fluorescent Spectrometer of Molecular Device Co. W is used at the excitation wavelength of 405 nm and the emission wavelength of 505 nm.

[2] = system: Jurkat cell (ATCC TIB-152); experiment: Jurkat cell apoptosis induced by Fas antibody, WST-1 method; type: cell-based; details: Homo sapiens, amount of alive Jurkat cells by WST-1
Description: The […] inhibitory activity of the inhibitors was determined by subjecting Jurkat cell (ATCC TIB-152) to apoptosis using Fas antibody (Upstate Biotech 05-201) and by detecting the color change according to the WST-1 method known in Francoeur A. M. and Assalian A. (1996) Biochemica 3, 19-25 to observe the amount of alive Jurkat cells when the cells were treated by the inhibitor. Spectra MAX 340 Spectrometer of Molecular Device Co. was used at the absorbance wavelength of 440 nm.

T1 sequence (Q14790 217-374 limits assumed, species assumed): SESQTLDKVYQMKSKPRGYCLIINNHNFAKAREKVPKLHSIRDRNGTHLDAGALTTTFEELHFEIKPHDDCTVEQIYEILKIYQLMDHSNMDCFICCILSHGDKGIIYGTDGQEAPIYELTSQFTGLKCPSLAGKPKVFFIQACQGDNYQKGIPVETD
T1 sequence (Q14790 385-479 limits assumed, species assumed): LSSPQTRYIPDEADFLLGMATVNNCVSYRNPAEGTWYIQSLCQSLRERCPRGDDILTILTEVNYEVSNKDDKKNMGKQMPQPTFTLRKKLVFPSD

SMILES	kinact/KI [1] [M⁻¹ s⁻¹]	IC50 [2] [nM]
CCC(C(=O)NC(CC(=O)O)C(=O)CF)c1c(C)ccn(-c2ccccc2)c1=O (stereo not drawn) [Example 1, 5-Fluoro-3-[2-(4-methyl-2-oxo-1-phenyl-1,2-dihydro-pyridin-3-yl)-butyrylamino]-4-oxo-pentanoic acid]	467	4900
CCC(C(=O)NC(CC(=O)O)C(=O)CF)c1c(C)ccn(CC(C)C)c1=O (stereo not drawn) [Example 4, 5-Fluoro-3-[2-(1-isobutyl-4-methyl-2-oxo-1,2-dihydro-pyridin-3-yl)-butyrylamino]-4-oxo-pentanoic acid]	733	390
CCC(C(=O)NC(CC(=O)O)C(=O)CF)c1c(C)ccn(Cc2ccccc2)c1=O (stereo not drawn) [Example 2, 3-[2-(1-Benzyl-4-methyl-2-oxo-1,2-dihydro-pyridin-3-yl)-butyrylamino]-5-fluoro-4-oxo-pentanoic acid]	1830	2430
CCC(C(=O)NC(CC(=O)O)C(=O)CF)c1cccn(Cc2ccccc2)c1=O (stereo not drawn) [Example 5, 3-[2-(1-Benzyl-2-oxo-1,2-dihydro-pyridin-3-yl)-butyrylamino]-5-fluoro-4-oxo-pentanoic acid]	16700	810
CCC(C(=O)NC(CC(=O)O)C(=O)CF)c1c(C)ccn(CCc2ccccc2)c1=O (stereo not drawn) [Example 3, 5-Fluoro-3-[2-(4-methyl-2-oxo-1-phenethyl-1,2-dihydro-pyridin-3-yl)-butyrylamino]-4-oxo-pentanoic acid]	750	–

Further lines, results first:

kinact/KI [1] [M⁻¹ s⁻¹]	IC50 [2] [nM]	SMILES
3500	2160	CC(C)C(C(=O)NC(CC(=O)O)C(=O)CF)c1cccn(Cc2ccccc2)c1=O (stereo not drawn) [Example 6, 3-[2-(1-Benzyl-2-oxo-1,2-dihydro-pyridin-3-yl)-3-methyl-butyrylamino]-5-fluoro-4-oxo-pentanoic acid]
33300	180	CCC(C(=O)NC(CC(=O)O)C(=O)CF)c1cccn(Cc2ccccc2C(C)(C)C)c1=O (stereo not drawn) [Example 8, 3-{2-[1-(2-tert-Butyl-benzyl)-2-oxo-1,2-dihydro-pyridin-3-yl]-butyrylamino}-5-fluoro-4-oxo-pentanoic acid]
6670	640	CCCC(C(=O)NC(CC(=O)O)C(=O)CF)c1cccn(Cc2ccccc2)c1=O (stereo not drawn) [Example 7, 3-[2-(1-Benzyl-2-oxo-1,2-dihydro-pyridin-3-yl)-pentanoylamino]-5-fluoro-4-oxo-pentanoic acid]
